Key:
[1] = rats exposed to sulcotrione; cited from earlier work
[2] = Plasma metabolite profiling (GC-MS, LC-MS, SPE-LC-MS) of rats dosed once daily over 28 days; treatment ratios versus untreated control; type: in vivo, rat; settings: male rats; for 5-Oxoproline, plasma metabolite ratio versus control / Alanine, plasma metabolite ratio versus control / Arginine (second line of the table), plasma metabolite ratio versus control / Arginine, plasma metabolite ratio versus control / Citrulline, plasma metabolite ratio versus control / Glutamine, plasma metabolite ratio versus control / Proline, plasma metabolite ratio versus control / Tyrosine, plasma metabolite ratio versus control: high dose; for Creatinine, ratio versus control: plasma, Table 12a
Procedure, shortened: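 Male and female rats (5/sex/group) dosed once daily for 28 days; fasted anaesthetized animals bled retro-orbitally (EDTA plasma) on days 7, 14, 28, stored −80 °C under N2. Polar and lipid fractions profiled by GC-MS (derivatized), LC-MS/MRM; steroids by online SPE-LC-MS. Pool-normalized data; treatment ratios vs sex-matched controls, Welch test p-values.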

Molecule: CS(=O)(=O)c1ccc(C(=O)C2C(=O)CCCC2=O)c(Cl)c1 [sulcotrione]
- corneal lesions [1]: corneal lesions that varied in severity from partial or hazy opacity to complete opacity

Molecule: Lead acetate trihydrate
- 5-Oxoproline, plasma metabolite ratio versus control ([2]; day 7 (m7)): 0.88
- Alanine, plasma metabolite ratio versus control ([2]; day 7 (m7)): 0.68
- Arginine (second line of the table), plasma metabolite ratio versus control ([2]; day 7 (m7)): 0.91
- Arginine, plasma metabolite ratio versus control ([2]; day 7 (m7)): 0.86
- Citrulline, plasma metabolite ratio versus control ([2]; day 7 (m7)): 0.94
- Glutamine, plasma metabolite ratio versus control ([2]; day 7 (m7)): 0.83
- Proline, plasma metabolite ratio versus control ([2]; day 7 (m7)): 0.88
- Tyrosine, plasma metabolite ratio versus control ([2]; day 7 (m7)): 0.92
- 5-Oxoproline, plasma metabolite ratio versus control ([2]; day 14 (m14)): 0.92
- Alanine, plasma metabolite ratio versus control ([2]; day 14 (m14)): 0.75
- Arginine (second line of the table), plasma metabolite ratio versus control ([2]; day 14 (m14)): 0.90
- Arginine, plasma metabolite ratio versus control ([2]; day 14 (m14)): 0.87
- Citrulline, plasma metabolite ratio versus control ([2]; day 14 (m14)): 0.90
- Glutamine, plasma metabolite ratio versus control ([2]; day 14 (m14)): 0.83
- Proline, plasma metabolite ratio versus control ([2]; day 14 (m14)): 0.84
- Tyrosine, plasma metabolite ratio versus control ([2]; day 14 (m14)): 0.88
- 5-Oxoproline, plasma metabolite ratio versus control ([2]; day 28 (m28)): 0.86
- Alanine, plasma metabolite ratio versus control ([2]; day 28 (m28)): 0.75
- Arginine (second line of the table), plasma metabolite ratio versus control ([2]; day 28 (m28)): 0.89
- Arginine, plasma metabolite ratio versus control ([2]; day 28 (m28)): 0.90
- Citrulline, plasma metabolite ratio versus control ([2]; day 28 (m28)): 0.91
- Glutamine, plasma metabolite ratio versus control ([2]; day 28 (m28)): 0.87
- Proline, plasma metabolite ratio versus control ([2]; day 28 (m28)): 0.88
- Tyrosine, plasma metabolite ratio versus control ([2]; day 28 (m28)): 0.90
- Creatinine, ratio versus control ([2]; day 7, high dose): 1.16
- Creatinine, ratio versus control ([2]; day 14, high dose): 1.32
- Creatinine, ratio versus control ([2]; day 28, high dose): 1.66

Reference: patent US20150031572A1, “MEANS AND METHODS FOR ASSESSING NEURONAL TOXICITY” (priority 2012, published 2015)
